Key:
primary VS cells [1] = test: TUNEL cell death assay in primary VS cultures; assay type: cell-based, human; conditions: 48 hours
Description: Rate of apoptosis in 6 VS cultures was assessed and correlated with tumor growth in vivo and tumor volume. […] Apoptosis was measured using terminal deoxynucleotidyl transferase dUTP nick end labeling (TUNEL, Roche Applied Sciences, NY) following manufacturer's instructions. Briefly, immunofluorescence protocol was followed as described under ‘Immunofluorescence,’ until fixations, then the cells were washed with PBS thrice and incubated in 1% Triton-X for 10 minutes on shaker. The cells were washed with PBS once and incubated in TUNEL mix for 1 hour at 37° C., then for 30 minutes at RT on shaker. The cells were then incubated in rhodamine phalloidin (Life Technologies, NY, 1:40) and Hoechst stain for 20 minutes, washed with PBS thrice and mounted onto slides for imaging. TUNEL and Hoechst stained nuclei were counted in >3 fields and the ratio of TUNEL positive to Hoechst positive nuclei was used to determine apoptosis rate in vitro. A positive control of 10 minutes-DNAse (Roche Applied Sciences, NY) treatment prior to TUNEL labeling was utilized.
(§1) For siRNA treatment, cultured primary VS cells or HEI-193 cells were placed in antibiotic and serum free media overnight. The next day, the cells were incubated with Life Technologies siRNAs targeting NF-κB genes RELA and NF-κB1, with control cells being treated with vehicle only (Lipofectamine RNAiMax), for 5 days. Some cultures were also incubated with a fluorescent random Oligo (Life Technologies) along with vehicle to assess transfection efficiency. siRNA experiments were performed in antibiotic and serum free media.
BAY11 or curcumin, diluted in 100% DMSO, were mixed to the accurate concentrations in warmed media and applied to the cultures (with DMSO concentration in media being 1% maximum), alongside a no-treatment control receiving media alone with appropriate corresponding DMSO levels.
After 48 hours of treatment, primary VS and Schwann cultures were fixed for BrdU staining, to visualize proliferation, or TUNEL staining, to visualize cell death.
After 48 hours of treatment with salicylates, primary VS and SC cultures were fixed for BrdU staining, to visualize proliferation, or TUNEL staining, to visualize cell death.

primary VS cells [2] = test: BrdU proliferation assay in primary VS cultures; assay type: cell-based, human; conditions: for proliferation, of the NT cells / proliferation, of the non-treated cells: 48 hours
Description: Proliferation rate of 12 VS cultures was assessed and correlated with the tumor volume in the latest gadolinium enhanced T1-weighted MRI scan prior to surgical resection, and with tumor growth in vivo, measured as changes in the tumor's volume over time calculated from serial MRI scans. Tumor growth was standardized by dividing the growth rate by the initial tumor volume. Separate analyses were performed for solid tumors, which generally account for approximately 96% of VSs (Charabi et al., 1994), versus all studied tumors, which included 4 out of 13 total tumors with a visible cystic component, because cystic components could misrepresent true tumor volume (Charabi et al., 1994). To determine the level of cell proliferation in the cultures, Bromodeoxyuridine (BrdU) was added to the cells at a concentration of 10 μg/ml 20 hours before the cells were fixed. The cells were kept in the dark after the addition of BrdU Immunofluorescence protocol was followed as described under ‘Immunofluorescence,’ and cell and nuclear membranes were permeablized by incubation in 1% Triton-X for 10 minutes and by incubation in 2N Hydrochloric acid for 20 minutes, respectively, after fixation. Primary antibody against BrdU (AbD Serotec, NC, 1:200) and anti-rat IgG (Life Technologies, NY, 1:1000) were used. BrdU- and Hoechst-stained nuclei were counted in 3-5 fields and the ratio of BrdU positive to Hoechst positive nuclei was used to determine the proliferation rate in vitro. […]
(§2) Cultured human primary VS cells, primary SCs and HEI-193 cells were treated with NF-κB inhibitors BAY11-7082 (BAY11) or curcumin for 48 hours (Santa Cruz Biotechnology). BAY11 or curcumin, diluted in 100% DMSO, were mixed to the accurate concentrations in warmed media and applied to the cultures (with DMSO concentration in media being 1% maximum), alongside a no-treatment control receiving media alone with appropriate corresponding DMSO levels. Experiments were performed in media fortified with antibiotics and serum (same formulation as described in Example 1 for culturing cells).
(§3) After 48 hours of treatment, primary VS and Schwann cultures were fixed for BrdU staining, to visualize proliferation, or TUNEL staining, to visualize cell death. The same methodology as described in Example 1 was utilized. Cleaved caspase 3 staining, another apoptosis marker to reinforce findings using TUNEL, was conducted using an antibody against cleaved caspase 3 following the ‘immunofluorescence’ protocol outlined in Example 1.
(§4) The cultures were incubated with the drugs for 48 hours. To label proliferating cells, BrdU was added 20 hours before fixation. pH was measured in the media after drug addition to ensure no significant deviations.
(§5) After 48 hours of treatment with salicylates, primary VS and SC cultures were fixed for BrdU staining, to visualize proliferation, or TUNEL staining, to visualize cell death. The same methodology as described in Example 1 was utilized.
To understand cross-talk between HGF and VEGF-A pathway, cultured VS cells were incubated with Life Technologies silencer select siRNAs targeting VEGFA (s461) or MET (s8700). To understand whether HGF signaling contributed to VS proliferation, cultured VS cells were treated with MET inhibitor SU11274 (Sigma-Aldrich, MO, #S9820). Seventy-two hours after siRNA treatment or 12 hours after treatment with SU11274 (2 μM), cells were incubated with 10 μg/mL BrdU (Life Technologies, NY, # B23151) for 20 hours before fixation.

primary SCs [3] = test: BrdU proliferation assay in primary Schwann cell cultures; assay type: cell-based, human; conditions: 48 hours
Description: (§6) Proliferation rate of 12 VS cultures was assessed and correlated with the tumor volume in the latest gadolinium enhanced T1-weighted MRI scan prior to surgical resection, and with tumor growth in vivo, measured as changes in the tumor's volume over time calculated from serial MRI scans. Tumor growth was standardized by dividing the growth rate by the initial tumor volume. Separate analyses were performed for solid tumors, which generally account for approximately 96% of VSs (Charabi et al., 1994), versus all studied tumors, which included 4 out of 13 total tumors with a visible cystic component, because cystic components could misrepresent true tumor volume (Charabi et al., 1994). To determine the level of cell proliferation in the cultures, Bromodeoxyuridine (BrdU) was added to the cells at a concentration of 10 μg/ml 20 hours before the cells were fixed. The cells were kept in the dark after the addition of BrdU Immunofluorescence protocol was followed as described under ‘Immunofluorescence,’ and cell and nuclear membranes were permeablized by incubation in 1% Triton-X for 10 minutes and by incubation in 2N Hydrochloric acid for 20 minutes, respectively, after fixation. Primary antibody against BrdU (AbD Serotec, NC, 1:200) and anti-rat IgG (Life Technologies, NY, 1:1000) were used. BrdU- and Hoechst-stained nuclei were counted in 3-5 fields and the ratio of BrdU positive to Hoechst positive nuclei was used to determine the proliferation rate in vitro.
as §2, §3, §4, §5

HEI-193 NF2 VS cell line [4] = test: TUNEL cell death assay in HEI-193 cells; assay type: cell-based, human; conditions: 48 hours
Description: (§7) Rate of apoptosis in 6 VS cultures was assessed and correlated with tumor growth in vivo and tumor volume. Two out of the six VS had cystic components. Apoptosis was measured using terminal deoxynucleotidyl transferase dUTP nick end labeling (TUNEL, Roche Applied Sciences, NY) following manufacturer's instructions. Briefly, immunofluorescence protocol was followed as described under ‘Immunofluorescence,’ until fixations, then the cells were washed with PBS thrice and incubated in 1% Triton-X for 10 minutes on shaker. The cells were washed with PBS once and incubated in TUNEL mix for 1 hour at 37° C., then for 30 minutes at RT on shaker. The cells were then incubated in rhodamine phalloidin (Life Technologies, NY, 1:40) and Hoechst stain for 20 minutes, washed with PBS thrice and mounted onto slides for imaging. TUNEL and Hoechst stained nuclei were counted in >3 fields and the ratio of TUNEL positive to Hoechst positive nuclei was used to determine apoptosis rate in vitro. A positive control of 10 minutes-DNAse (Roche Applied Sciences, NY) treatment prior to TUNEL labeling was utilized.
(§8) The same methodology as described in Example 1 was utilized for primary VS and SC cultures. Cultures were treated with NF-κB inhibitors approximately after 2 weeks of culturing. HEI-193 cell line was a gift from Dr. Giovannini at the House Ear Institute (Hung et al., 2002a).
as §1, §2, §3

primary SCs [5] = test: TUNEL cell death assay in primary Schwann cell cultures; assay type: cell-based, human; conditions: 48 hours
Description: as §7, §2, §3

HEI-193 NF2 VS cell line [6] = test: BrdU proliferation assay in HEI-193 cells; assay type: cell-based, human; conditions: for normalized proliferation rate: 48 hours
Description: as §6, §8, §1, §2, §3

[7] = tested on: cochlear explant cultures (hair cells and neurites); test: Murine cochlear explant culture, hair cell, neurite and fiber damage counts; assay type: cell-based, CBA/CaJ mice; conditions: 100 ng/mL FGF2 pre-application plus 1 mM gentamicin, 48 hours total
Source text: To develop an animal model to study hearing loss due to VS, cochlear explant cultures were established from postnatal CBA/CaJ mice aged P3-P5 (Jackson Laboratory, ME). Briefly, after decapitating the mouse, temporal bones were dissected from the skull in Hank's Balanced Salt Solution (Life Technologies, NY). The otic capsule encasing the cochlea was dissected out from each temporal bone. The otic capsule was carefully stripped away and the spiral ligament was peeled away from the entire cochlea, starting from the base. The basal turn of cochlea was then isolated using the dissecting knife (Fine Science Tools, CA), discarding the apical turn hook region. The tectorial membrane and the Reissner's membrane were removed, leaving the organ of Corti intact with the spiral ganglion neuron region. This explant was cultured onto a 10 mm glass coverslip coated with CellTak (BD Biosciences, CA, #354241) in a 35 mm culture dish with 4 wells. Cells were cultured in 98% DMEM, 1% ampicillin and 1% N2 supplement.
To assess FGF2's otoprotective effect, cochlear explant cultures were treated with recombinant human FGF2±gentamicin. After culturing the explants overnight, media fortified with FGF2 (100 ng/mL) was applied. Twenty-four hours later media fortified with gentamicin (1 mM) and FGF2 (100 ng/mL) was applied. […] Cochlear explants were fixed after an additional 24 hours of treatment, with total time being 48 hours.
After treatment, the explants were fixed and stained with antibodies against myosin 7A (Myo7A, Proteus Biosciences, CA) and β-tubulin (Tuj1, Covance, MA) to identify hair cells (HCs) and neurons, respectively. The same immunofluorescence protocol as described in Example 1 was used, with the exceptions of omission of […] HCl incubation, usage of 5% NHS with 1% Triton-X for blocking solution and 1% NHS with 0.4% Triton-X solution for primary antibody incubation at room temperature (RT). Secondary antibodies (Alexa Flour 555 anti-mouse and Alexa Four 488 anti-rabbit) were purchased from Life Technologies. Cochlear explants were imaged using a Leica TCS SP5 Confocal microscope. Zoomed-in pictures for the region of organ of Corti, including neurites, were merged in a z-stack to obtain a z-axis projection image in the Leica software. The number of hair cells (HCs) and neurites were manually counted per 100 μm length along the cochlea, with 1-2 samplings per specimen.
The same general methodology for murine cochlear explant cultures as described in Example 5 was utilized. Cochlear explant cultures were established from P2-P3 mice. Importantly, instead of only culturing the basal turn, the apical turn was also isolated, providing two pieces per cochlea with a greater frequency range. After approximately 12 hours, the cochlear explant cultures were treated for 48 hours with tumor secretions diluted to half their concentration. The formulation was 46.5% tumor-conditioned DMEM, 46.5% plain DMEM, 5% FBS, 1% ampicillin and 1% N2 supplement. Cochlear explants were treated with control media in parallel, being 46.5% DMEM incubated without tumor, 46.5% plain DMEM, 5% FBS, 1% ampicillin and 1% N2 supplement. All reagents were purchased from Life Technologies, NY. Osmolality in the solutions was measured in samples using a vapor-pressure osmometer (standardized with 290 mOsm/kg of 0.1567M sodium chloride solution) before applying them onto cochlear explants. Extra formulation for each VS secretion was made to be tested on Milliplex arrays and ELISA. Milliplex array, containing FGF2, VEGF-A and HGF beads (Millipore) and human TNFα ELISA (R&D Systems) were conducted as directed by the manufacturer on VS secretions prior to being applied onto the cochlear explant cultures.
Cochlear explants were fixed 48 hours after treatment and the same methodology for VS secretion application as described in Example 5 was utilized. […]

Nc1ccc(O)c(C(=O)O)c1 [5-ASA, 5-aminosalicylic acid]
cell death rate (primary VS cells [1]; 5 mM): 5.6±3.2% | proliferation, of the NT cells (primary VS cells [2]; 5 mM): 55% | proliferation, of the NT cells (primary VS cells [2]; 10 mM): 54.8±16.5% | proliferation, of the NT cells (primary SCs [3]; 5 mM): 107.8±22.4% | proliferation, of the NT cells (primary SCs [3]; 10 mM): 109.7±26.7%

Cc1ccc(S(=O)(=O)/C=C/C#N)cc1 [BAY11, BAY11-7082]
cell death rate (primary VS cells [1]; 1 μM): 36±13% | cell death rate (primary VS cells [1]; 5 μM): 47±12% | cell death rate (HEI-193 NF2 VS cell line [4]; 1 μM): 1.3±0.5% | cell death rate (HEI-193 NF2 VS cell line [4]; 5 μM): 1.9±1.2% | cell death rate (HEI-193 NF2 VS cell line [4]; 10 μM): 1.1±1.1% | cell death rate (HEI-193 NF2 VS cell line [4]; 100 μM): 58.8±21.5% | cell death rate (HEI-193 NF2 VS cell line [4]): 55.3±16.9% | apoptosis / cell death rate (primary SCs [5]; 1 μM): 1.0±0.7% | apoptosis / cell death rate (primary SCs [5]; 5 μM): 0.7±0.7% | normalized proliferation rate (HEI-193 NF2 VS cell line [6]; 10 μM): 65.6±24.6% | normalized proliferation rate (HEI-193 NF2 VS cell line [6]; 100 μM): 9.1±4.9% | normalized proliferation rate (HEI-193 NF2 VS cell line [6]): 4.3±3.3% | higher concentration needed to reduce proliferation and survival than in primary VS cells (HEI-193 NF2 VS cell line [6]; NF2 VS cell line versus primary VS cells): ~10 fold | proliferation, of the non-treated cells (primary VS cells [2]; 1 μM): 54.7±22.8% | proliferation, of the non-treated cells (primary VS cells [2]; 5 μM): 14% | proliferation, of the non-treated cells (primary VS cells [2]; 5 μM, listed as BAY 11): 14.3±9.7% | effective therapeutic window to target VS cells (primary VS cells [2]; from primary VS and SC culture results combined): around 5 μM | normalized proliferation rate (primary SCs [3]; 1 μM): 165.2±125.1% | normalized proliferation rate (primary SCs [3]; 5 μM): 133.2±101.1% | normalized proliferation rate, of the NT cells (primary SCs [3]; 1 mM): 130.2±65.6%

Cc1[nH]c(/C=C2\C(=O)Nc3ccc(S(=O)(=O)N(C)c4cccc(Cl)c4)cc32)c(C)c1C(=O)N1CCN(C)CC1 [SU11274]
proliferation, of VS cells treated with DMSO only (primary VS cells [2]; 2 μM, 12 hours then BrdU 20 hours): 22.4±11.7%

FGF2: recombinant human FGF2
number of neurites per 100 μm [7]: 13.7±5.5 per 100 μm | total number of HCs per 100 μm length [7]: 15.0±4.6 per 100 μm

From patent US10010585B2, “Methods of treating vestibular schwannoma and reducing hearing or neurite loss caused by vestibular schwannoma” (Massachusetts Eye and Ear Infirmary, priority 2014, dated 2018)
